Measurements taken from article PMC2752035 (Bioorganic & medicinal chemistry, 2009).

Target: sarco/endoplasmic reticulum calcium ATPase (SERCA) (Oryctolagus cuniculus, UniProt P04191)
Assay: SERCA-catalyzed ATP hydrolysis, coupled PK/LDH NADH oxidation assay

Sequence of sarco/endoplasmic reticulum calcium ATPase (SERCA) (P04191 1-994 isoform P04191-2): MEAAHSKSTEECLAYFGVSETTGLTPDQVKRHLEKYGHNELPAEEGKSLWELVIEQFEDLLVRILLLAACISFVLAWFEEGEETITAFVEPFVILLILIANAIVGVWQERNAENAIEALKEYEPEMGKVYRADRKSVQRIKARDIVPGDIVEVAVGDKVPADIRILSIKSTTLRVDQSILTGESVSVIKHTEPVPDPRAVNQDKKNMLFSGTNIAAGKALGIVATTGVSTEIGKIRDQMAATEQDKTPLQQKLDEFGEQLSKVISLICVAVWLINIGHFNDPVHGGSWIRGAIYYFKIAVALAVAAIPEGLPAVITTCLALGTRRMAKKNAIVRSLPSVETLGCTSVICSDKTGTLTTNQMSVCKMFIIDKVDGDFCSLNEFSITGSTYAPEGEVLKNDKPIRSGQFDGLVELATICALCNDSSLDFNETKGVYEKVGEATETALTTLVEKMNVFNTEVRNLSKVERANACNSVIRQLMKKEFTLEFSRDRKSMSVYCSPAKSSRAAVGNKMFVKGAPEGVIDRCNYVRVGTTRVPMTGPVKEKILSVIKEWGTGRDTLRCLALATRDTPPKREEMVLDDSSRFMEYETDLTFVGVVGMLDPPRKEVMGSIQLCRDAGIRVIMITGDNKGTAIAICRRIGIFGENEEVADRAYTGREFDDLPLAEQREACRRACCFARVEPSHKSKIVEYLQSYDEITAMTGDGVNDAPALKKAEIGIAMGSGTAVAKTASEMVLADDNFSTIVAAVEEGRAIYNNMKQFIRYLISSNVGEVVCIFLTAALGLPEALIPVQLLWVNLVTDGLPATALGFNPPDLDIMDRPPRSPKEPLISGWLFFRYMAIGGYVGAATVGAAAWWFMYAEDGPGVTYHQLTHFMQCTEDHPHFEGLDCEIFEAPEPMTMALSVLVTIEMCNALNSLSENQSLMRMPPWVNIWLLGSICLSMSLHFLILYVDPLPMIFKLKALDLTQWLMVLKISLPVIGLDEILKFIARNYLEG

CC(C)(C)OC(=O)NCCCC(=O)Oc1cc(C(C)(C)C)c(OC(=O)CCCNC(=O)OC(C)(C)C)cc1C(C)(C)C [8a]
SERCA inhibition (activity in words): inactive
